These results are taken from patent US20220213052A1, “INHIBITORS OF RNA-BINDING PROTEINS, COMPOSITIONS THEREOF, AND THERAPEUTIC USES THEROF” (The University of North Carolina at Chapel Hill, priority 2019, published 2022).

Where a name gives a salt, the structure may show the parent alone. Read-outs that look alike come from different tables or passages of the source.

The target of data set [1] is T1, full-length human HuR protein (Homo sapiens, UniProt Q15717).
T1 construct: full-length human HuR protein was produced by the KU COBRE-PSF Protein Purification Group; made in house
T1 sequence (Q15717 whole entry): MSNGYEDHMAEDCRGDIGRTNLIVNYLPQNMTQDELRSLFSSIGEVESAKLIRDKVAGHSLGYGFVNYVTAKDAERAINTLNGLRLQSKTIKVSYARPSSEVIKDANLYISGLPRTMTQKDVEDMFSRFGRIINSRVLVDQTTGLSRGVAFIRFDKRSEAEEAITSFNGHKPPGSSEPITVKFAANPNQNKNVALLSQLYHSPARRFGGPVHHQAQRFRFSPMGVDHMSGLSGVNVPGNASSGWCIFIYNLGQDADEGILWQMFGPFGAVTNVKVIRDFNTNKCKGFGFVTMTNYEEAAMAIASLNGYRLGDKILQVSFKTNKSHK
Put plainly: FP-based binding of full length HuR to fluorescein-labeled target RNAs. The following applies: 16 nt RNA oligo, 3′-fluorescein. The procedure:
FIG. 3 provides the results of a fluorescence polarization (FP)-based binding assay, illustrating that full length HuR binds to FITC-Bcl-2, Msi1, and XIAP RNA but not to scrambled oligo-FITC. The concentration of FITC-RNA used in the assay is 2 nM.
(§1) A fluorescence polarization (FP)-based binding assay was utilized to assess the inhibition of HuR protein interaction with the ARE site of Msi1 mRNA (“HuR-Msi1^ARE”) by compounds of interest. Briefly, full-length human HuR protein was produced by the KU COBRE-PSF Protein Purification Group and Bcl2, Msi1 and XIAP mRNA sequences (16 nt) were designed based on literature precedent^23,24,31,32. Fluorescein labeled RNAs were purchased from Dharmacon with the following sequences: Msi1 RNA: 5′-[…]-3′-fluorescein; Bcl-2 RNA: 5′-[…]-3′-fluorescein; XIAP RNA: 5′-[…] UGUC-3′-fluorescein, and a 16-nt degenerative RNA with 3′-fluorescein label was used as a negative control.

Data set [2] has as its system pancreatic cancer cell line MIAPaCa-2. Put plainly: Cytotoxicity assay (WST-8), MIAPaCa-2. In kind it is cell-based. The following applies: Homo sapiens, MIA PaCa-2, 96 h incubation. The procedure:
(§2) The cytotoxicity of various compounds of the present technology in several cancer cell lines (pancreatic cancer cell line MIAPaCa-2, triple-negative breast cancer cell line MDA-MB-231, and colon cancer cell lines HCT116, HCT116 β/W, and RKO) was assessed by a cytotoxicity assay. Cells were seeded in 96-well culture plates (3,000-5,000 cells/well) and treated with titrated compounds in triplicate. After 96 h incubation, cell growth medium was removed and proliferation reagent WST-8 (Sigma) was added to each well and incubated at 37° C. for 1-3 h. Absorbance was then measured with a plate reader at 450 nm with correction at 650 nm. The results were expressed as the percentage of absorbance of treated wells versus that of vehicle control. IC50, the drug concentration causing 50% growth inhibition, was calculated via sigmoid curve fitting using GraphPad Prism 5.0. The results for those compounds tested against MIAPaCa-2 and MDA-MB-231 are provided in Table 1; the results for those compounds tested against colon cancer cell lines HCT116, HCT116 β/W, and RKO are provided in Table 3.
A general note: Tetrazolium assays rely on reduction of a dye to a coloured formazan, in cell work by metabolically active cells.

The subject of data set [3] is colon cancer cell line HCT116. Put plainly: Cytotoxicity assay (WST-8), HCT116. The data set is classed as cell-based. The settings on record: Homo sapiens, HCT-116, 96 h incubation. The procedure: as §2
In another data set the target is Msi1 (Homo sapiens, UniProt O43347). Put plainly: Msi1 FP assay. The data set is classed as binding. Here is the method: (§3) With the FP assay of HuR-Msi1ARE binding, the inhibition of the HuR-Msi1ARE interaction by various compounds of the present technology was assessed. Similar FP assays for Musashi 2 (Msi2) and for RNA-binding protein Lin-28 homolog B (LIN28B) were also performed on various compounds of the present technology. The results of such assays for HuR are provided in Table 1 alongside the compound structures as well as ID numbers for ease of reference; the results of such assays for Msi1, Msi2, and LIN28B are provided in Table 2.
Msi1, sequence (O43347 whole entry, species assumed): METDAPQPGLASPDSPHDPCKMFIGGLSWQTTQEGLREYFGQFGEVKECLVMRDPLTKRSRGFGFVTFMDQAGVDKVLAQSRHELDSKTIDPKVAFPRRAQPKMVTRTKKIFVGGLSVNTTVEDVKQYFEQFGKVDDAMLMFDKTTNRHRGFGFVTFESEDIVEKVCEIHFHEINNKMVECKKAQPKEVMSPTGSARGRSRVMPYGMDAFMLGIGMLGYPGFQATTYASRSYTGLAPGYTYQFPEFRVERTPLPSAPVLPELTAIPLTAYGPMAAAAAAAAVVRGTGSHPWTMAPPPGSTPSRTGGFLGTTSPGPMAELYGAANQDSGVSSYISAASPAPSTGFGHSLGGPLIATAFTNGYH

Data set [4] has as its system colon cancer cell line SW480. Put plainly: Cytotoxicity assay (WST-8), SW480. In kind it is cell-based. The settings on record: Homo sapiens, 96 h incubation.
Data set [5] relates to colon cancer cell line RKO. The experiment in a line: Cytotoxicity assay (WST-8), RKO. The data set is classed as cell-based. The following applies: 96 h incubation. The procedure: as §2
The target of data set [6] is T1, full-length human HuR protein. The experiment in a line: FP assay of HuR-Msi1 ARE binding inhibition. The following applies: HuR-Msi1 ARE interaction; read-out: HuR Ki via FP assay.
Excerpt: as §1, §3

Data set [7] relates to colon cancer cell line HCT116 β/W. The experiment in a line: Cytotoxicity assay (WST-8), HCT116 β/W. In kind it is cell-based. The settings on record: Homo sapiens, HCT-116, 96 h incubation. The procedure:
as §2

The target of another data set is Musashi 2 (Msi2) (Homo sapiens, UniProt Q96DH6). Put plainly: Msi2 FP assay. In kind it is binding. The procedure: as §3
Musashi 2 (Msi2), sequence (Q96DH6 whole entry, species assumed): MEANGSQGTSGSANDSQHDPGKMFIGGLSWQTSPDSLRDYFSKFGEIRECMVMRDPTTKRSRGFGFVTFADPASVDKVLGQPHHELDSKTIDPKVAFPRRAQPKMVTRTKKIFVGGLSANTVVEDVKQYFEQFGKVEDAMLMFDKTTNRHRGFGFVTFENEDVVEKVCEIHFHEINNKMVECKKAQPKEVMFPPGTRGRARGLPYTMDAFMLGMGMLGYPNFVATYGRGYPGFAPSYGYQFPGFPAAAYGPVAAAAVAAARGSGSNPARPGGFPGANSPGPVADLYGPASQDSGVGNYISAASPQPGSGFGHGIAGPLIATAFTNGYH
Data set [8] addresses T2, RNA-binding protein Lin-28 homolog B (LIN28B) (Homo sapiens, UniProt Q6ZN17).
T2 sequence (Q6ZN17 1-250): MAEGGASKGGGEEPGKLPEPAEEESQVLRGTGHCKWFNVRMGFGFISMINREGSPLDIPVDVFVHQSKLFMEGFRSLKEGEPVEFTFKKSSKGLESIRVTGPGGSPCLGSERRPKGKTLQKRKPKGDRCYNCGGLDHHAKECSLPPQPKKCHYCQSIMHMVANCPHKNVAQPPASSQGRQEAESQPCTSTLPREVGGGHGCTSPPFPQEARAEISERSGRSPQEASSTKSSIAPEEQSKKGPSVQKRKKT
Put plainly: LIN28B FP assay. The procedure: as §3

Data set [9] concerns triple-negative breast cancer cell line MDA-MB-231. The experiment in a line: Cytotoxicity assay (WST-8), MDA-MB-231. In kind it is cell-based. The following applies: Homo sapiens, 96 h incubation. The procedure: as §2
For data set [10], the target named is T3, HuR protein bound to ARE^Msi1-Biotin (Homo sapiens, UniProt Q15717).
T3 construct: endogenous in cells; cytoplasmic lysate
T3 sequence (Q15717 2-326 limits assumed): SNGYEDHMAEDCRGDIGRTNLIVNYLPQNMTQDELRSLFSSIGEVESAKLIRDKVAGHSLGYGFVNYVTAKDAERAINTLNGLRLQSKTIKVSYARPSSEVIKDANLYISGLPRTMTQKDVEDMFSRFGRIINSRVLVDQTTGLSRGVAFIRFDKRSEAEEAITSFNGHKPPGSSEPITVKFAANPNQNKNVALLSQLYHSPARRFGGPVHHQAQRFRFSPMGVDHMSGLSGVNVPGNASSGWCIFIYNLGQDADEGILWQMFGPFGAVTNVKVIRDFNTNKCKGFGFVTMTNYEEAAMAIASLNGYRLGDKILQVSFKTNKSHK
The experiment in a line: RNA immunoprecipitation (RNA-IP) pull-down assay. The data set is classed as cell-based. The following applies: 20 μM. Here is the method: Pull-down Assay #1—RNA Immunoprecipitation (RNA-IP): Cells with HuR overexpression will be treated with compounds, then the cell cytoplasmic lysates were collected using NE-PER Nuclear and Cytoplasmic Extraction Kit (Thermo Scientific), and subsequently to the cell cytoplasmic lysates were added the biotinylated target ARE oligo from Msi1 mRNA (ARE^Msi1-Biotin). Following this, streptavidin beads were added to pull down HuR protein bound to ARE^Msi1-Biotin. Unlabeled target AREs used as positive control. Compounds of the present technology block the HuR pull-down by the biotinylated ARE oligo, illustrating inhibition of the HuR-mRNA interaction. For example, using 20 μM KH-39, 20 μM KH-56, and 10 μM KH-58 in such a RNA-IP assay provided the data illustrated in FIG. 5. The numbers immediately below the pictured bands in FIG. 5 are calculated by diving the band intensity of the particular sample by the band intensity of the DMSO treated sample (entry 3). […]

The next data set deals with MDA-MB-231 cells. The experiment in a line: Matrigel invasion assay. In kind it is cell-based. The settings on record: 10 μM; 24 h pretreatment, 20 h incubation. Here is the method:
To examine the anti-metastatic effect of compounds of the present technology, an invasion assay using Matrigel Invasion Chambers coated with Matrigel Matrix was performed. To perform the assays, MDA-MB-231 cells pretreated with compounds for 24 hours are added to the chambers and then incubated for 20 hours. Cells that remained on the upper surface of the chamber are completely removed with a cotton swab. Cells that emigrated or invaded through the membrane/Matrigel to the bottom of the chamber were fixed and stained with 0.2% crystal violet and photographed.

For data set [11], the target named is T4, HuR-bound target mRNAs in MDA-MB-231 cells (Homo sapiens, UniProt Q15717).
T4 construct: endogenous in cells; host or cells: MDA-MB-231
T4 sequence (Q15717 2-326 limits assumed): as above
The experiment in a line: Ribonucleoprotein immunoprecipitation (RNP-IP) pull-down assay. The following applies: 10 μM. The data set is classed as cell-based. Here is the method:
Pull-down Assay #2—Ribonuleoprotein Immunoprecipitation (RNP-IP): Cells with HuR overexpression were treated with compounds, then the cell cytoplasmic lysates collected using NE-PER Nuclear and Cytoplasmic Extraction Kit (Thermo Scientific), then the cell cytoplasmic lysates incubated with anti-HuR antibody, and subsequently Protein G agarose beads (from Roche) added to pull down HuR protein. The HuR-bound target mRNAs pulled down were measured by qRT-PCR using a reported method (Ji, Q., et al., MicroRNA miR-34 inhibits human pancreatic cancer tumor-initiating cells. PLoS One, 2009. 4(8): p. e6816, incorporated herein by reference). Mouse IgG will be used as negative control. Compounds of the present technology block the target mRNAs pulled down by HuR antibody.

The mark [12] stands for this setting: cell marked (RRM1), read-out: Msi2 (Ki) (RRM1).
The mark [13] stands for this setting: cell without (RRM1) mark, read-out: Msi2 (Ki).

One may read the Kd as the equilibrium constant for the complex coming apart. For the compound “5′-AAAAGAUUUAUUUAUU-3′-fluorescein (3'-fluorescein, further chemistry not given here) [Bcl-2 RNA, Fluorescein labeled 16 nt RNA purchased from Dharmacon]”, the dissociation constant (Kd) in [1] is 0.0063 µM.

On to “5′-GCUUUUAUUUAUUUUG-3′-fluorescein (3'-fluorescein, further chemistry not given here) [Msi1 RNA, Fluorescein labeled 16 nt RNA purchased from Dharmacon]”, for which, in data set [1], binding was put at a Kd of 0.002 µM.

Regarding “5′-UAGUUAUUUUUA UGUC-3′-fluorescein (UAGUUAUUUUUAUGUC; 3'-fluorescein, further chemistry not given here) [XIAP RNA, Fluorescein labeled 16 nt RNA purchased from Dharmacon]”, the affinity in [1], expressed as Kd, was 0.0035 µM.

Usually IC50 stands for the concentration at which inhibition is half-maximal. A lower IC50 goes with greater potency in that assay. By Ki is commonly meant the equilibrium dissociation constant of an inhibitor or competing ligand from its target. On to `CC(C)(C)c1ccc(C(=O)Nc2ccc3sc(/C=C/C(=O)O)cc3c2)cc1` [KH-19A, (E)-3-(5-(4-(tert-butyl)benzamido)benzo[b]thiophen-2-yl)acrylic acid], for which the IC50 in data set [2] is 56 µM; in [3], over 100 µM; in data set [4] it was over 100 µM; in data set [5], 78.5 µM; in data set [7] it was 80.6 µM; in data set [9], 72.1 µM. The Ki on Msi1 was 2.24 µM; in [6], 0.97 µM; on Musashi 2 (Msi2) (setting [12]) it was 0.28 µM; in data set [8], over 20 µM.

Turning to `CC(C)(C)C(=O)Nc1ccc2sc(/C=C/C(=O)NO)cc2c1` [KH-20, (E)-N-hydroxy-3-(5-pivalamidobenzo[b]thiophen-2-yl)acrylamide], it took 3.98 µM to reach half-maximal inhibition in data set [2] (IC50). The inhibitory constant (Ki) (on Msi1; in data set [6]; on Musashi 2 (Msi2) (setting [13]); in [8]) was over 20 µM each time.

In turn, `CC(C)(C)C(=O)Nc1ccc2sc(/C=C/C(=O)O)cc2c1` [KH-20A, (E)-3-(5-pivalamidobenzo[b]thiophen-2-yl)acrylic acid] returned an IC50 in data set [2] of over 100 µM. The Ki (on Msi1; in [6]; at Musashi 2 (Msi2) (setting [13]); in data set [8]) was over 20 µM in each case.

Consider `CN(C)c1ccc(C(=O)Nc2ccc3sc(/C=C/C(=O)NO)cc3c2)cc1` [KH-36, (E)-4-(dimethylamino)-N-(2-(3-(hydroxyamino)-3-oxoprop-1-en-1-yl)benzo[b]thiophen-5-yl)benzamide], for which the IC50 in data set [3] stood at 5.05 µM; in [4] it was 4.89 µM; in data set [5], 5.74 µM; in data set [7], 4 µM; in data set [9], 4.02 µM. Also, the figures for the Ki (in data set [6]; on Musashi 2 (Msi2) (setting [12]); in [8]) were 0.55 µM, 1.5 µM and 7.1 µM, respectively.

Consider `CN(C)c1ccc(C(=O)Nc2ccc3sc(/C=C/C(=O)O)cc3c2)cc1` [KH-36A, (E)-3-(5-(4-(Dimethylamino)benzamido)benzo[b]thiophen-2-yl)acrylic acid], for which the IC50 was 98.5 µM in data set [3]; over 100 µM in data set [4]; 62.9 µM in data set [5]; 99.9 µM in data set [7]; over 100 µM in [9]. The Ki on Msi1 amounted to 0.22 µM; in data set [6] it was 0.12 µM; on Musashi 2 (Msi2) (setting [12]), 0.5 µM; in [8], 1.64 µM.

Regarding `CN(C)c1ccc(C(=O)Nc2ccc3sc(CCC(=O)NO)cc3c2)cc1` [KH-38], the Ki at Msi1 was over 20 µM; in data set [6], 2.88 µM; on Musashi 2 (Msi2) (setting [13]) it was over 20 µM; in data set [8], over 20 µM. This compound also showed an IC50 in data set [9] of 25.9 µM.

For `CC(C)(C)c1ccc(C(=O)Nc2ccc3[nH]c(C(=O)O)cc3c2)cc1` [KH-39A, 5-(4-(tert-butyl)benzamido)-1H-indole-2-carboxylic acid], the Ki was over 20 µM on Msi1, 12.5 µM in data set [6], 22 µM on Musashi 2 (Msi2) (setting [12]) and over 20 µM in data set [8]. This compound also yielded an IC50 in [9] of over 100 µM.

On to `O=C(Nc1ccc2[nH]c(C(=O)NO)cc2c1)c1ccccn1` [KH-56, N-hydroxy-5-(picolinamido)-1H-indole-2-carboxamide hydrochloride], for which, in data set [10], the “ARE^Msi1-Biotin mediated pull-down of HuR protein” value is “did not show pull-down of HuR protein”. Moreover, the MDA-MB-231 cell invasion entry in the data set on MDA-MB-231 cells was “did not provide a statistically significant difference”. In addition, the Ki (in [6]; on Musashi 2 (Msi2) (setting [13]); in [8]) was over 20 µM in each case. Moreover, the “HuR pull-down of target mRNAs” value in data set [11] is recorded as “did not provide results statistically distinguishable from vehicle control”. Also, in data set [9], the concentration for half-maximal inhibition (IC50) worked out at 75.3 µM.
